Results published in a melting point compilation (Tetko et al.; mined from patent text by program, amines drawn as free bases though some values may be those of a salt).

Compound	melting point [°C]
CCOC(=O)Nc1cc(C)cc(Nc2c3cccc(C)c3nc3c(C(=O)NCCN(C)C)cccc23)c1	263 to 264
Nc1cc(C=O)nc(C2CCCO2)c1F (centres undefined)	122 to 123
CCOC(=O)C1=C(C)Nc2ccnc(OC(C)C)c2C1c1cccc2c1OCO2 (centres undefined)	156 to 158
CC(=O)CC(=S)NCC(=O)N1CCC[C@H]1C(=O)O	> 320
O=C1N=C(N2CCOCC2)SC1=Cc1ccc(OC(F)(F)F)c(-c2cc(F)c(O)c(C34CC5CC(CC(C5)C3)C4)c2)c1	238
CCOC(=O)C(C#N)=C1CCN(c2ccc(OC)cc2)CC1	87
Cc1nc2ccnn2c(Cl)c1CCCl	87 to 88
O=C1Nc2ncccc2N2CCNCC12 (centres undefined)	315 to 319
Cc1cc(C)c(C(=O)O)c(C)c1C	164 to 167
Cc1cc(C2=CC3(CC(C)(C)C2CO)SCCCS3)ccc1F (centres undefined)	128 to 129
Cc1nc(CCOc2ccc(CC3SC(=N)NC3=O)cc2)oc1-c1ccccc1 (centres undefined)	194 to 195
N#CCCCCCN1CCc2c(c3cc(F)ccc3n2-c2ccc(F)cc2)C1	90 to 98
CC(C)(C)OC(=O)N1CCC(c2cnc3oc(-c4ccc(C(F)(F)F)cc4)nc3c2)CC1	184 to 188
CS(=O)(=O)c1ccc(-c2cnn(-c3cc(F)cc(F)c3)c(=O)c2-c2ccc(F)cc2)cc1	166 to 168
Fc1ccc(OCCCCCN2CCN(c3nccs3)CC2)cc1	42 to 44
CC(C)n1cnc2c(Cl)nc(I)nc21	104
CCc1ccc2oc(C(=O)Nc3ccc(-c4ccc(S(=O)(=O)NC(C(=O)O)C(C)C)cc4)cc3)c(C)c2c1OC(C)C (centres undefined)	159 to 162
CCCCc1cn2ccccc2c1S(=O)(=O)c1ccc(OS(=O)(=O)c2ccc(C)cc2)cc1	145
CCOC(=O)c1cccc(-c2ccc3cc[nH]c3c2)c1	120 to 121
O=C(c1ccccc1)c1ccc(Nc2nc(Nc3ccc(C(=O)c4ccccc4)cc3)nc(-c3cccn3Cc3ccccc3)n2)cc1	115 to 118
O=C1NC(=O)C(Cc2ccc(OCCN3c4ccccc4Sc4ccc(C(F)(F)F)cc43)cc2)S1 (centres undefined)	64
NC(=S)NC(c1ccccc1)c1ccc(Cl)cc1 (centres undefined)	173 to 175
CCOc1ccc2[nH]c(=O)n(CCN3CCOCC3)c2c1	107
CC(=O)CC(=O)NC1CCCCC1	66 to 69
CCc1c(C(=O)OC(C)C)ncc2[nH]c3ccc4sc(NC(C)=O)nc4c3c12	208 to 210

Compound	melting point [°C]
CC(C)(C)OC(=O)[C@H](CCC(=O)N1CCC2(CCN(Cc3ccccc3)CC2)CC1)NS(=O)(=O)c1ccccc1	134 to 136
CCOC(=O)c1[nH]c(C)nc1C	165 to 166
COc1ccc(C2=C(/C=C/C(=O)O)CCc3cc(OC)ccc32)cc1	222 to 224
CC1(C)CC(=O)C(S(=O)CC2CCCCC2)=C(O)C1 (centres undefined)	77 to 79.5
CSc1ccc(CN2C(=O)C3(COc4cc5c(cc43)OCO5)c3ccccc32)cc1 (centres undefined)	128 to 130
CC(C)(C=O)CN1CCN(CC(C)(C)C=O)C1=O	78 to 80
CCCOCC1(C)CCCOc2cc(C#Cc3ccc(C(=O)O)cc3)ccc21 (centres undefined)	148 to 149
Cc1cc(-c2ccc(C(F)(F)F)cc2)nc2c(C(=O)Nc3cccc(S(C)(=O)=O)c3)cnn12	198 to 200
CCCn1cnc(C(N)=O)c1NC(=O)c1ccccc1OCC	182 to 184
CC1(C)Oc2ccc(OC(F)(F)F)cc2[C@@H](NC(=O)c2ccc(C(F)(F)F)cc2[N+](=O)[O-])[C@@H]1O	60 to 65
CCCN(CCCCc1coc2c(OC)cccc12)C1COc2c(F)ccc(C(N)=O)c2C1 (centres undefined)	99 to 110
CCC(=O)Nc1ccc(Oc2cccc(OC)c2)cc1	79 to 81
OCc1c(F)cc(O)cc1Cl	125 to 127
CCOC(=O)c1cnc2nn(C)cc2c1O	222 to 224
CCOC(=O)C(O)c1ccc(-n2cccc2)cc1 (centres undefined)	126 to 128
CC(=O)NCCCc1ccc(CN2CCN(c3ccccc3)CC2)cc1	117 to 118
Cc1ncc(C#N)c(Nc2ccc3[nH]ccc3c2C)c1-c1ccc(OCCCl)cc1	200 to 201
CCCCCCc1ccc(-c2c(C#N)nn(C(C)(C)Cc3ccc(C)cc3)c2O)cc1	140 to 142
O=C(Nc1nnn[nH]1)c1csc(-c2ccco2)n1	275 to 277
CN1c2ccc(C(C)(C)C)cc2[C@H]2Cc3ccccc3[C@H]21 (relative stereo)	74
COC(=O)c1c(C)c(-c2cc(OC)c(Cl)cc2F)nn1C	135 to 137
COc1ccc(N(C)c2ncnc3occ(C)c23)cc1	84 to 85.6
CCCc1c2nc(C(=O)O)cc(Cl)c2cc2c(=O)cc(C(=O)O)oc12	336 to 338
Cc1cn(C(C)C(=O)N2CCCC2)nc1-c1ccccc1 (centres undefined)	72 to 74
O=C1C=CC(O)(c2cc3ccccc3n2S(=O)(=O)c2ccccc2)c2ccccc21 (centres undefined)	175 to 177

Compound	melting point [°C]
CC(C)n1c(-c2ccccc2)nc(-c2ccc(F)cc2)c1CO	190 to 193
CCCc1nc(C(C)(C)O)c(C(=O)OCOC(=O)C(C)(C)C)n1Cc1ccc(-c2ccccc2C(=O)OC(C)(C)C)cc1	106 to 107
Cc1ccc(O)c(C(=O)Nc2cc(Cl)cc(Cl)c2)c1	216 to 217
COC(=O)c1c(-c2ccccc2)nn2ccc3c(c12)C(CC#N)CC3 (centres undefined)	214 to 215
Cc1c(C#N)cc(C(C)(C)C)c(O)c1C(=O)Nc1ccc(S(=O)c2ccc(Br)cc2)cc1C(F)(F)F (centres undefined)	178 to 180
CNC(=O)C(NC(=O)c1cn(C)nc1C(F)(F)F)C(COC(C)=O)c1ccccc1 (centres undefined)	175
O=c1[nH]c2ccccc2c2c(C(O)CC3CCNCC3)n(-c3ccccc3)nc12 (centres undefined)	258 to 261
CCN(CC)c1ccc(C2(c3ccc(N(C)C)cc3N(C)C)OC(=O)c3c(Cl)c(Cl)c(Cl)c(Cl)c32)cc1 (centres undefined)	206 to 208
Cc1cc(C)c2c(c1)C(Nc1ncnc(N)n1)CCC2 (centres undefined)	178 to 180
COc1cc(Nc2c(C#N)cnc3cc4cc(OC)c(OCCN5CCC(O)CC5)cc4cc23)c(Cl)cc1C	205 to 235
CC(C)(C)OC(=O)Nc1ncc(-c2ccc(C#Cc3ccccc3)cc2)n1C(=O)OC(C)(C)C	131 to 132
CC(=O)c1ccc(NC(=O)NN2CC=CCC2)cc1	142 to 143
CN(C)c1cc(N)c(C(=O)O)cc1[N+](=O)[O-]	240 to 250
N#Cc1ccc(COc2cc(O)cc(C(=O)Nc3ccc(C#N)cc3)c2)cc1	199 to 201
CC(C)(C)c1ccccc1COc1ccc(N)nn1	147 to 149
CCOC(=O)CC1Nc2ccccc2CC(N)C1=O (centres undefined)	71 to 73
O=C(CCCN1CCN(c2ncc3ccccc3n2)CC1)c1ccc(F)cc1	129 to 131
CC(=O)Nc1ccc(C(=O)c2cc(-c3ccc(Cl)cc3)c(N3CCOCC3)s2)cc1	125 to 127
O=C(c1cc(-c2ccccc2)no1)C1CCCCC1N1CCCC1 (centres undefined)	109 to 111
COc1ccc(CNc2nc(OCc3ccccn3)ncc2C(=O)c2cc(OC)c(OC)c(OC)c2)cc1Cl	129
CN1CCC(C(=O)Nc2ccc(CN(C)C3CCOCC3)cc2)=Cc2cc(-c3ccc(C(F)(F)F)cc3)ccc21	188
O=c1[nH]c2ccc(F)cc2n2ccnc12	> 300
Nc1c2c(nc3ccccc13)C1CCC2C1 (centres undefined)	185 to 186
COC(=O)C(C)(C)n1nnc2ccc(Oc3cc(F)c(C(F)(F)F)c(Cl)c3)cc21	76.8 to 80
CCOC(=O)[C@H](Cc1cc(Cl)c(N)c(Cl)c1)NC(=O)C(F)(F)F	124 to 125

Compound	melting point [°C]
Cn1cc(-c2c(-c3ccccc3)nn3ccncc23)ccc1=O	168 to 169
O=C1NOCc2ccccc21	123 to 125
Cc1cccc(NC(=O)NCC(=O)N2C(Cc3ccccc3)SC[C@H]2C(=O)OC(C)(C)C)c1 (some centres undefined)	104
C#Cc1ccc(C23OCC(C4CCCCC4)(CO2)CO3)cc1	190 to 192
CN(C)CCCNS(=O)(=O)c1cccc(N)c1	89 to 93
Sc1nsnc1-c1c(Cl)cccc1Cl	91 to 94
COc1cc(-c2nc(N)sc2CCC2CCC(C)(C)CC2)c(OC)cc1C	136 to 138
Cn1ccnc1C(C)(C)O	128 to 129
COc1ccc(CCN2CCC(C(O)c3nc4ccccc4s3)CC2)cc1 (centres undefined)	127 to 129
O=C(O)c1ccc2c(=O)c3cc(C(=O)O)ccc3oc2c1	> 400
COc1cc(C(O)CN2CCC(C(c3ccccc3)c3ccccc3)CC2)on1 (centres undefined)	121 to 126
Cc1cc(C(=O)C(=O)O)c(O)cc1Oc1ccccc1	85 to 87
CCCS(=O)(=O)c1ccc2c(c1)C1(O)C(C2)SC(=NCC)N1CC (centres undefined)	136
O=C(O)Cc1cc(Cc2nc3c(F)c(F)cc(F)c3s2)cc(C(=O)O)c1	203 to 205
COc1ccc(C2CC(=O)N(C(=S)NCc3ccc(F)cc3)N2C)cc1OC1CCCC1 (centres undefined)	48 to 51
CCCc1c(SCCCOc2ccc(C(C)O)c(OCCCC(=O)O)c2CCC)ccc(C(C)=O)c1O (centres undefined)	85 to 86
CN(CC(=O)c1cccn1Cc1ccccc1[N+](=O)[O-])Cc1ccccc1	103 to 105
O=C1Cc2ccccc2C(c2ccccc2F)N1 (centres undefined)	167 to 169
COc1ccc(-c2cc(O)ccc2-c2ncnc(-c3ccccc3)n2)cc1	177 to 178
COc1cccc2c1C[C@H]1C[C@@H](CCN3CCN(C(c4ccccc4)c4ccccc4)CC3)CN(C)[C@@H]1C2	140 to 148
CNS(=O)(=O)c1ccc(NC=C2C(=O)Nc3ccc4ncsc4c32)cc1CCOCCO	165
Cn1c2c(c3cccc(C(=O)O)c31)CCCC2	180
COc1nn(C(=S)Oc2ccccc2)c(=O)n1N	158
O=C1C(=Cc2cccnc2)CCc2ccc(Br)cc21	124 to 125
